Measurements as given in patent US20230416261A1, “ETHANEDIAMINE-HETEROCYCLE DERIVATIVES AS INHIBITORS OF PROTEIN ARGININE METHYLTRANSFERASES” (Board of Regents, The University of Texas System, priority 2021, published 2023).

Assays:
[1] = test system: PATC53 cells; assay: PATC53 Long Term Phenotypic Assay (14 days, crystal violet viability); assay type: cell-based; details: 336 h
How it was run: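 Cells seeded at 250 per well, allowed 24 h to settle, then treated with 1:3 serial dilutions of compound for 14 days at 37 °C, 5% CO2. Viability measured by crystal violet staining, solubilised in 10% HOAc, absorbance 590 nm; IC50 from four-parameter logistic fit.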

[2] = molecular target: T1, PRMT1 (Homo sapiens, UniProt Q99873); assay: PRMT1 RKO Cellular Target Engagement Assay (In-Cell Western, asymmetric di-methyl arginine); assay type: cell-based; details: RKO cells, 48 hr compound incubation; read-out: RKO IC50 (PRMT-1 Target Engagement)
How it was run: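 RKO cells (1,000/well) received 1:3 serially diluted compound for 48 h at 37 °C, then were fixed, permeabilised and immunostained for asymmetric di-methyl arginine by In-Cell Western. The 800 nm antibody signal was normalised to CellTag 700 nm; IC50 from four-parameter logistic fit.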

[3] = test system: DOHH2 cells; assay: DOHH2 Long Term Phenotypic Assay (7 days, Cell Titer-Glo viability); assay type: cell-based; details: Homo sapiens, DOHH-2, 168 h, Cell Titer-Glo 2.0
How it was run: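 DOHH2 lymphoma cells (250 per well) in RPMI-1640 with 10% FBS were exposed to 1:3 serially diluted compounds for 7 days at 37 °C, 5% CO2. Viability was read by CellTiter-Glo 2.0 luminescence, and IC50 values came from four-parameter logistic fits.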

[4] = molecular target: T1, PRMT1; assay: PRMT1 Enzymatic Assay (LANCE TR-FRET, methylation of histone H4 at Arg3); assay type: biochemical; design: purchased SignalChem P365-380G; details: PRMT1 1.5 nM, SAM 1 μM, biotinylated histone H4 (1-21) 25 nM; read-out: PRMT-1 IC50
How it was run: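 PRMT1 (1.5 nM) preincubated 15 min with compound at room temperature, then reacted 1 h with 1 μM SAM and 25 nM biotinylated histone H4 (1-21) in 50 mM Hepes pH 8, 1 mM TCEP, 0.003% Tween-20. H4R3me detected by TR-FRET (665/620 nm ratio); IC50 from four-parameter logistic fit.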

T1 sequence (Q99873 whole entry): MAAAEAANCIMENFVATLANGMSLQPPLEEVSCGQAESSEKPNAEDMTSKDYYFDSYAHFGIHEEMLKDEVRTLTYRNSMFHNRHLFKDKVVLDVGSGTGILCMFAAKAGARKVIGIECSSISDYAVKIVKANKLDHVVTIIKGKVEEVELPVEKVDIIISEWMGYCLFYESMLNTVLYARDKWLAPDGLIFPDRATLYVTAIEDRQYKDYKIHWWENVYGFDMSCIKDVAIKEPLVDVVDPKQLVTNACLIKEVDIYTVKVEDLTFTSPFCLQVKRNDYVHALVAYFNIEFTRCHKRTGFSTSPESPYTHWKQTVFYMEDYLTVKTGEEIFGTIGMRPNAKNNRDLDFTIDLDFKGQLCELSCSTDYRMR

Structure (SMILES)	IC50 [1] [nM]	IC50 [2] [nM]	IC50 [3] [nM]	IC50 [4] [nM]
COCC1(COC)CCC(c2c(CN(C)CCN)nn3c2CN(C(=O)C2(F)CCC2)CC3)CC1 [Example 49, (2-(((2-aminoethyl)(methyl)-amino)methyl)-3-(4,4-bis-(methoxymethyl)cyclohexyl)-6,7-dihydropyrazolo[1,5-a]-pyrazin-5(4H)-yl)(1-fluoro-cyclobutyl)methanone]	118	329	166	13
COCC1(COC)CCC(c2c(CN(C)CCN)nn3c2CN(C(=O)C2CCC(F)(F)CC2)CC3)CC1 [Example 50, (2-(((2-aminoethyl)(methyl)-amino)methyl)-3-(4,4-bis-(methoxymethyl)cyclohexyl)-6,7-dihydropyrazolo[1,5-a]-pyrazin-5(4H)-yl)(4,4-difluorocyclohexyl)-methanone]	154	1240	171	17
CNCCN(C)Cc1nn2c(c1C1CCC(COC)(COC)CC1)CN(C(=O)C1CC(F)(F)C1)CC2 [Example 53, (3-(4,4-bis(methoxymethyl)-cyclohexyl)-2-((methyl(2-(methylamino)ethyl)amino)-methyl)-6,7-dihydropyrazolo-[1,5-a]pyrazin-5(4H)-yl)(3,3-difluorocyclobutyl)-methanone]	42	1110	87	68
CNCCN(C)Cc1nn2c(c1C1CCC(COC)(COC)CC1)CN(C(=O)C1CC(OC)C1)CC2 (stereo not shown) [Example 58, (3-(4,4-bis(methoxymethyl)-cyclohexyl)-2-((methyl(2-(methylamino)ethyl)amino)-methyl)-6,7-dihydropyrazolo-[1,5-a]pyrazin-5(4H)-yl)(3-methoxycyclobutyl)-methanone]	131	372	131	65
CNCCN(C)Cc1nn2c(c1C1CCC(COC)(COC)CC1)CN(C(=O)CC1CCC1)CC2 [Example 60, 1-(3-(4,4-bis(methoxy-methyl)cyclohexyl)-2-((methyl(2-(methylamino)-ethyl)amino)methyl)-6,7-dihydropyrazolo[1,5-a]-pyrazin-5(4H)-yl)-2-cyclobutylethan-1-one]	33	345	82	54
COCC1(COC)CCC(c2c(CN(C)CCN)nn3c2CN(C(=O)C2CC(C)(C)C2)CC3)CC1 [Example 61, (2-(((2-aminoethyl)(methyl)-amino)methyl)-3-(4,4-bis-(methoxymethyl)cyclohexyl)-6,7-dihydropyrazolo[1,5-a]-pyrazin-5(4H)-yl)(3,3-dimethylcyclobutyl)-methanone]	68	1950	224	23
CNCCN(C)Cc1nn2c(c1C1CCC(COC)(COC)CC1)CN(C(=O)C13CC(C)(C1)C3)CC2 [Example 63, (3-(4,4-bis(methoxymethyl)-cyclohexyl)-2-((methyl(2-(methylamino)ethyl)amino)-methyl)-6,7-dihydropyrazolo-[1,5-a]pyrazin-5(4H)-yl)(3-methylbicyclo[1.1.1]pentan-1-yl)methanone]	16	610	67	44
CNCCN(C)Cc1nn2c(c1C1CCC(COC)(COC)CC1)CN(C(=O)C(C)C(F)(F)F)CC2 (stereo not shown) [Example 68, 1-(3-(4,4-bis(methoxy-methyl)cyclohexyl)-2-((methyl(2-(methylamino)-ethyl)amino)methyl)-6,7-dihydropyrazolo[1,5-a]-pyrazin-5(4H)-yl)-3,3,3-trifluoro-2-methylpropan-1-one]	41	128	71	121
CNCCN(C)Cc1nn2c(c1C1CCC(COC)(COC)CC1)CN(C(=O)C1CC(C(F)(F)F)C1)CC2 (stereo not shown) [Example 74, (3-(4,4-bis(methoxymethyl)-cyclohexyl)-2-((methyl(2-(methylamino)ethyl)amino)-methyl)-6,7-dihydropyrazolo-[1,5-a]pyrazin-5(4H)-yl)(3-(trifluoromethyl)cyclobutyl)-methanone]	54	142	93	57
CNCCN(C)Cc1nn2c(c1C1CCC(COC)(COC)CC1)CN(C(=O)C1(C)CCCC1)CC2 [Example 80, (3-(4,4-bis(methoxymethyl)-cyclohexyl)-2-((methyl(2-(methylamino)ethyl)amino)-methyl)-6,7-dihydropyrazolo-[1,5-a]pyrazin-5(4H)-yl)(1-methylcyclopentyl)-methanone]	70	116	104	91
